Results taken from publication PMC6593967, “The development and prevalidation of an in vitro mutagenicity assay based on MutaMouse primary hepatocytes, Part II: Assay performance for the identification of mutagenic chemicals” (Environmental and Molecular Mutagenesis, 2019).
Several values for one entry are separate records, joined by “and”; a condition that tells them apart may be missing. Identical values can stand only once. Entries after “also recorded” stand apart in the source; their conditions may differ. Like-named read-outs stand apart in the source and are kept apart here.

Tests used:
[1] = test system: MutaMouse primary hepatocytes (PHs); test: MutaMouse PH in vitro gene mutation assay (lacZ mutant frequency, P-Gal positive selection); conditions: for Significant MF increase over concurrent vehicle control at any concentration: Bonferroni-corrected contrasts; for Overall treatment effect on MF (Chi-squared test): P < 0.05 significant
[2] = test system: MutaMouse FE1 lung epithelial cells; conditions: cited from earlier work
[3] = test system: MutaMouse primary hepatocytes (PHs); test: Cytotoxicity by relative increase in nuclear counts (RINC), flow cytometry; format: cell-based, mouse
Method: Cytotoxicity was measured using the relative increase in nuclear counts (RINC) metric. […] To normalize nuclei counts, 150 μL of a suspension of 6 μm fluorescently labeled polystyrene microspheres was added to each sample of lysate. […] Each microsphere‐lysate sample was diluted 1:10 prior to flow cytometric analysis. Data were acquired using a BD Biosciences FACScalibur flow cytometer (BD Biosciences, Mississauga, Ontario) equipped with a 488 nm laser. Instrumentation settings and data acquisition were facilitated using CellQuest Pro software (BD Biosciences). Data analysis was performed using Flowing Software version 2.5.1 (Turku Centre for Biotechnology, Turku, Finland). SYTOX® green and bead fluorescence emission were captured in the FL1 channel (530/30 band‐pass filter). Events were scored as nuclei following the application of key criteria (i.e., within a side scatter (SSC) vs forward scatter (FSC) region, within a region that excludes doublets, and within an FSC vs. FL1 region).

liver = test system: liver; parameters: method as in Rompelberg et al., 1996a; Rompelberg et al., 1996b; conditions: ref Rompelberg et al., 1996a, 1996b; cited from earlier work
[4] = test system: hematopoietic tissues (e.g., the bone marrow and blood); conditions: cited from earlier work
[5] = test system: p53‐deficient hamster cells; conditions: ref NTP, 1982, 1986, Kirkland et al., 2008, Fowler et al., 2012a, 2016; cited from earlier work
[6] = test system: p53‐functional human cells; conditions: ref NTP, 1982, 1986, Kirkland et al., 2008, Fowler et al., 2012a, 2016; cited from earlier work
MutaMouse = conditions: cited from earlier work; for Relative potency in the MutaMouse gene mutation assay in vivo: ref Gocke et al., 2009, Luijten et al., 2016, Hanna, 2018, Long et al.
[7] = ref NTP, 1982, 1986, Kirkland et al., 2008, Fowler et al., 2012a, 2016; cited from earlier work
[8] = test system: pUR288 lacZ Plasmid Mouse PHs; conditions: cited from earlier work; for Response in pUR288 lacZ Plasmid Mouse PHs gene mutation assay: ref citations provided
tk locus = conditions: S9; PhIP: human TK6 assay; 3-NBA: tk locus in human lymphoblast lines h1A1v2 and MCL-5; ref citations provided; cited from earlier work
[9] = 6 h exposure, 72 h sampling, no exogenous S9
[10] = BMR 100% (twofold MF increase), PROAST covariate analysis
[11] = lower limit of 90% confidence interval of BMD100
[12] = maximum response, concentration not given
[13] = upper limit of 90% confidence interval of BMD100
[14] = at or above top concentrations tested
[15] = ref White et al., 2003, Hanna, 2018

| Compound | Response in MutaMouse PH gene mutation assay [1, 9] | BMD100, Exponential model [1, 10] [µg/mL] | BMD100, Hill model [1, 10] [µg/mL] | BMDL, Exponential model [1, 11] [µg/mL] | BMDL, Hill model [1, 11] [µg/mL] | MF fold increase over control in MutaMouse PHs [1, 12] [fold] | Relative mutagenic potency by BMD100 covariate analysis ([1]; ranking of positive chemicals) | BMDU, Exponential model [1, 13] [µg/mL] | BMDU, Hill model [1, 13] [µg/mL] | Response in MutaMouse FE1 gene mutation assay ([2]; S9, ref citations provided) | also measured |
| --- | --- | --- | --- | --- | --- | --- | --- | --- | --- | --- | --- |
| O=C1c2ccccc2-c2ccc([N+](=O)[O-])c3cccc1c23 [3‐NBA, 3‐nitrobenzanthrone] | positive results; also recorded: positive responses | 0.15 | 0.15 | 0.0689 | 0.0689 | 3.6 | most potent | 0.373 | 0.363 | Positive (±S9) | MF fold-increase over control ([1]; 0.5 μg/mL, 6 h exposure, 72 h sampling): 8.2 fold; MF fold increase above solvent control in MutaMouse FE1 cells ([2]; ref Arlt et al., 2008): ~ five; Cytotoxicity (RINC) in words [3, 14]: sharp increase in cytotoxicity |
| C=CCc1ccc(O)c(OC)c1 [Eugenol] | equivocal | – | – | – | – | – | – | – | – | – | Significant MF increase over concurrent vehicle control at any concentration [1]: absence of a significant response at any concentration tested; also recorded: Neither TBHQ nor eugenol yielded a significant increase in MF; Overall treatment effect on MF (Chi-squared test) [1]: significant result for the overall treatment effect; Overall treatment effect on MF (Chi-squared test) ([1]; listed as eugenol): significant treatment effect; Result in UDS assay (liver): negative results; Genotoxicity result in vivo ([4]; data limited, mainly hematopoietic tissues, ref Kirkland et al., 2016): negative results in vivo; Result for micronucleus [5]: positive; Result in in vitro micronucleus assay [6]: negative results; Cytotoxicity (RINC) in words [3, 14]: could not be tested at higher concentrations due to cytotoxicity; also recorded: too cytotoxic to test at higher concentrations; Result in in vivo MutaMouse assay (MutaMouse; liver, ref Rompelberg et al., 1996a, Rompelberg et al., 1996b): negative results; Result in in vitro chromosome aberration test [7]: positive |
| CN(C)N=O [DMN, dimethylnitrosamine] | positive responses | 7.6 | 7.6 | 3.18 | 3.18 | 14.4 | less potent than 3‐NBA and BaP | 21.5 | 16.8 | – | MF fold-increase over control ([1]; 200 μg/mL, 6 h exposure, 72 h sampling): 14.4 fold |
| CCN(N=O)C(N)=O [ENU, N‐ethyl‐N‐nitrosourea] | Positive | 76 | 76 | 36.6 | 36.6 | 4.2 | – | 178 | 170 | Positive (−S9) | MF fold-increase over control ([1]; 1,000 μg/mL, 6 h exposure, 72 h sampling): 4.2 fold; MF fold increase in MutaMouse FE1 cells ([2]; ref White et al., 2003): ~ 6 fold; MF fold increase in pUR288 lacZ plasmid mouse PHs ([8]; ref Luijten et al., 2016): ~ 4 fold; Response in pUR288 lacZ Plasmid Mouse PHs gene mutation assay [8]: Positive; Relative potency in the MutaMouse gene mutation assay in vivo (MutaMouse; liver and bone marrow): more potent than BaP; Relative potency in the MutaMouse gene mutation assay in vivo (MutaMouse; small intestine, versus BaP): of equivalent potency |
| CC(=O)Nc1ccc2c(c1)Cc1ccccc1-2 [2‐AAF, 2‐acetylaminofluorene] | positive responses | 1.9 | 1.9 | 0.964 | 0.964 | 2.6 | less potent than 3‐NBA and BaP | 3.96 | 3.96 | Positive (±S9) | MF fold-increase over control ([1]; 5 μg/mL, 6 h exposure, 72 h sampling): 2.6 fold; MF fold increase in MutaMouse FE1 cells [2, 15]: ~ 1.7 fold |
| CC1(C)S[C@@H]2[C@H](NC(=O)[C@H](N)c3ccccc3)C(=O)N2[C@H]1C(=O)O [Ampicillin trihydrate] | Negative | – | – | – | – | – | – | – | – | – | – |
| aflatoxin B1 [AFB1] | – | – | – | – | – | – | – | – | – | – | BMD100, Exponential model [1]: 0.47 µg/mL; BMD100, Hill model [1]: 0.47 µg/mL; BMDL, Exponential model [1]: 0.193 µg/mL; BMDL, Hill model [1]: 0.193 µg/mL; BMDU, Exponential model [1]: 1.47 µg/mL; BMDU, Hill model [1]: 1.47 µg/mL; MF fold increase over control in MutaMouse PHs [1]: 3.6 fold; MF fold-increase over control [1]: 3.6 fold and 2.5 fold; Relative mutagenic potency by BMD100 covariate analysis [1]: most potent; Response in MutaMouse PH gene mutation assay [1]: positive responses; MF fold increase in MutaMouse FE1 cells [2]: ~ three; Response in MutaMouse FE1 gene mutation assay [2]: Positive (±S9); RINC [3]: 0.6 and 0.3 |
| COc1ccc2nc3cc(Cl)ccc3c(NCCCNCCCl)c2c1.Cl.Cl [ICR 191, 6‐chloro‐9‐[3‐(2‐chloroethylamino)propylamino]‐2‐methoxyacridine dihydrochloride] | negative result | – | – | – | – | – | – | – | – | – | Significant MF increase over concurrent vehicle control at any concentration [1]: did not yield a significant increase in MF; Overall treatment effect on MF (Chi-squared test) [1]: nor was a significant treatment effect detected |
| Cn1c(N)nc2ncc(-c3ccccc3)cc21 [PhIP, 2‐amino‐1‐methyl‐6‐phenylimidazo[4,5‐b]pyridine] | positive responses | 2.6 | 2.6 | 1.05 | 1.05 | 3.7 | less potent than 3‐NBA and BaP | 7.8 | 7.05 | Positive (+S9) | MF fold-increase over control ([1]; 10 μg/mL, 6 h exposure, 72 h sampling): 3.7 fold; MF fold increase in MutaMouse FE1 cells [2, 15]: ~ 5.5 fold |
| CC(C)(C)c1cc(O)ccc1O [TBHQ, tertiary butylhydroquinone] | Negative | – | – | – | – | – | – | – | – | – | Significant MF increase over concurrent vehicle control at any concentration [1]: Neither TBHQ nor eugenol yielded a significant increase in MF; Genotoxicity result in vivo ([4]; in vivo): negative results in vivo; Result for micronucleus [5]: positive; Result in in vitro micronucleus assay [6]: negative results; Cytotoxicity (RINC) in words [3]: relatively high RINC obtained at the top concentration; Result in in vitro chromosome aberration test [7]: positive |
| OC[C@@H](O)[C@@H](O)[C@H](O)[C@H](O)CO [D‐Mannitol] | Negative | – | – | – | – | – | – | – | – | Negative (−S9) | Response in pUR288 lacZ Plasmid Mouse PHs gene mutation assay [8]: Negative; Response in MLA (tk locus): Negative (±S9) |
